{"source": "the supplement of paper PMC7017272", "conditions_in_all_cases": "treatment time: 3 days", "key": {"[1]": {"system": "UT-SCC-24A", "experiment": "maximal % inhibition of viability relative to DMSO; higher = stronger effect", "protocol": "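HNSCC cell lines (500 cells/well, 384-well) were cultured on plastic, on top of (2D) or embedded (3D) in Matrigel or human leiomyoma matrix Myogel (500 ug/mL; Myogel 3D mixed with rat collagen I). Cells were treated for 3 days with 5 ten-fold concentrations of each drug, and viability was read by CellTiter-Glo. Viability was normalised to DMSO (0% inhibition) and 100 uM benzethonium chloride (100% inhibition) controls and fitted with the FIMM DSRT pipeline to give IC50 (nM), maximal % inhibition and the drug sensitivity score (DSS). Suffixes _1/_2/_3 on drug names are replicates.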"}, "[2]": {"system": "UT-SCC-106A", "experiment": "drug sensitivity score (DSS); higher = more sensitive; extreme values may be limits of the assay", "in_short": "(§1)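 Using 384-well plates, 500 cells/well of HPV-negative HNSCC cell lines were grown on plastic, on 500 µg/mL Matrigel or Myogel coatings, or embedded in Matrigel or Myogel with rat collagen I. They were treated with compounds at five 10-fold concentrations for 3 days, and luminescence from CellTiter-Glo 2.0 was normalised to vehicle (0.1% DMSO) and cell-killing control wells. IC50, maximal inhibition and drug sensitivity score were derived from percent-inhibition dose–response curves in the FIMM pipeline.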"}, "[3]": {"system": "UT-SCC-14", "experiment": "drug sensitivity score (DSS); higher = more sensitive; extreme values may be limits of the assay", "in_short": "as §1"}, "[4]": {"system": "UT-SCC-24B", "experiment": "drug sensitivity score (DSS); higher = more sensitive; extreme values may be limits of the assay", "in_short": "as §1"}, "[5]": {"system": "UT-SCC-28", "experiment": "drug sensitivity score (DSS); higher = more sensitive; extreme values may be limits of the assay", "in_short": "as §1"}, "[6]": {"system": "UT-SCC-40", "experiment": "drug sensitivity score (DSS); higher = more sensitive; extreme values may be limits of the assay", "in_short": "as §1"}, "[7]": {"system": "UT-SCC-42A", "experiment": "drug sensitivity score (DSS); higher = more sensitive; extreme values may be limits of the assay", "in_short": "as §1"}, "[8]": {"system": "UT-SCC-42B", "experiment": "drug sensitivity score (DSS); higher = more sensitive; extreme values may be limits of the assay", "in_short": "as §1"}, "[9]": {"system": "UT-SCC-44", "experiment": "drug sensitivity score (DSS); higher = more sensitive; extreme values may be limits of the assay", "in_short": "as §1"}, "[10]": {"conditions": "culture condition: embedded in Matrigel"}, "[11]": {"conditions": "culture condition: embedded in Myogel + collagen I"}, "[12]": {"conditions": "culture condition: on top of Matrigel"}, "[13]": {"conditions": "culture condition: on top of Myogel"}, "[14]": {"conditions": "culture condition: plastic 2D (no matrix)"}}, "note": "± gives the standard deviation of the averaged measurements.", "data": [{"molecule": "CO[C@H]1C[C@@H]2CC[C@@H](C)[C@@](O)(O2)C(=O)C(=O)N2CCCC[C@H]2C(=O)O[C@H]([C@H](C)C[C@@H]2CC[C@@H](OC(=O)C(C)(CO)CO)[C@H](OC)C2)CC(=O)[C@H](C)/C=C(\\C)[C@@H](O)[C@@H](OC)C(=O)[C@H](C)C[C@H](C)/C=C/C=C/C=C/1C", "note": "[Temsirolimus]", "values": [{"measurement": "maximal % inhibition of viability", "setting": "[1]; [10]", "value": "46.8 ± 44", "unit": "%"}, {"measurement": "maximal % inhibition of viability", "setting": "[1]; [11]", "value": "40.8 ± 6.7", "unit": "%"}, {"measurement": "maximal % inhibition of viability", "setting": "[1]; [12]", "value": "33.3 ± 6.1", "unit": "%"}, {"measurement": "maximal % inhibition of viability", "setting": "[1]; [13]", "value": "28.7 ± 1.9", "unit": "%"}, {"measurement": "maximal % inhibition of viability", "setting": "[1]; [14]", "value": "33.8 ± 2.7", "unit": "%"}, {"measurement": "drug sensitivity score", "setting": "[2]; [10]", "value": "6.03 ± 1.3", "unit": "DSS"}, {"measurement": "drug sensitivity score", "setting": "[2]; [11]", "value": "5.33 ± 1.3", "unit": "DSS"}, {"measurement": "drug sensitivity score", "setting": "[2]; [12]", "value": "5.93 ± 1", "unit": "DSS"}, {"measurement": "drug sensitivity score", "setting": "[2]; [13]", "value": "3.33 ± 0.21", "unit": "DSS"}, {"measurement": "drug sensitivity score", "setting": "[2]; [14]", "value": "7.6 ± 0.85", "unit": "DSS"}, {"measurement": "drug sensitivity score", "setting": "[3]; [10]", "value": "15.4 ± 0.23", "unit": "DSS"}, {"measurement": "drug sensitivity score", "setting": "[3]; [11]", "value": "14 ± 1.9", "unit": "DSS"}, {"measurement": "drug sensitivity score", "setting": "[3]; [12]", "value": "13.3 ± 0.66", "unit": "DSS"}, {"measurement": "drug sensitivity score", "setting": "[3]; [13]", "value": "13.7 ± 1.3", "unit": "DSS"}, {"measurement": "drug sensitivity score", "setting": "[3]; [14]", "value": "13.1 ± 2.3", "unit": "DSS"}, {"measurement": "drug sensitivity score", "setting": "[4]; [10]", "value": "5.07 ± 3.1", "unit": "DSS"}, {"measurement": "drug sensitivity score", "setting": "[4]; [11]", "value": "11 ± 2.6", "unit": "DSS"}, {"measurement": "drug sensitivity score", "setting": "[4]; [12]", "value": "4.3 ± 1.7", "unit": "DSS"}, {"measurement": "drug sensitivity score", "setting": "[4]; [13]", "value": "6.37 ± 1.4", "unit": "DSS"}, {"measurement": "drug sensitivity score", "setting": "[4]; [14]", "value": "4.77 ± 1.2", "unit": "DSS"}, {"measurement": "drug sensitivity score", "setting": "[5]; [10]", "value": "4.9 ± 2.9", "unit": "DSS"}, {"measurement": "drug sensitivity score", "setting": "[5]; [11]", "value": "4.77 ± 3.2", "unit": "DSS"}, {"measurement": "drug sensitivity score", "setting": "[5]; [12]", "value": "8.37 ± 2.5", "unit": "DSS"}, {"measurement": "drug sensitivity score", "setting": "[5]; [14]", "value": "8.8 ± 1.3", "unit": "DSS"}, {"measurement": "drug sensitivity score", "setting": "[6]; [10]", "value": "6.03 ± 2", "unit": "DSS"}, {"measurement": "drug sensitivity score", "setting": "[6]; [11]", "value": "6.8 ± 2.6", "unit": "DSS"}, {"measurement": "drug sensitivity score", "setting": "[6]; [12]", "value": "4.17 ± 1.6", "unit": "DSS"}, {"measurement": "drug sensitivity score", "setting": "[6]; [13]", "value": "4.53 ± 1.1", "unit": "DSS"}, {"measurement": "drug sensitivity score", "setting": "[6]; [14]", "value": "3.6 ± 1", "unit": "DSS"}, {"measurement": "drug sensitivity score", "setting": "[7]; [10]", "value": "4.67 ± 1.3", "unit": "DSS"}, {"measurement": "drug sensitivity score", "setting": "[7]; [11]", "value": "5.23 ± 3.3", "unit": "DSS"}, {"measurement": "drug sensitivity score", "setting": "[7]; [12]", "value": "5.87 ± 1.4", "unit": "DSS"}, {"measurement": "drug sensitivity score", "setting": "[7]; [13]", "value": "6.4 ± 0.35", "unit": "DSS"}, {"measurement": "drug sensitivity score", "setting": "[7]; [14]", "value": "4.5 ± 1.1", "unit": "DSS"}, {"measurement": "drug sensitivity score", "setting": "[8]; [10]", "value": "4 ± 6", "unit": "DSS"}, {"measurement": "drug sensitivity score", "setting": "[8]; [12]", "value": 0, "unit": "DSS"}, {"measurement": "drug sensitivity score", "setting": "[8]; [13]", "value": 0, "unit": "DSS"}, {"measurement": "drug sensitivity score", "setting": "[8]; [14]", "value": "0.933 ± 0.84", "unit": "DSS"}, {"measurement": "drug sensitivity score", "setting": "[9]; [10]", "value": "5.33 ± 4", "unit": "DSS"}, {"measurement": "drug sensitivity score", "setting": "[9]; [11]", "value": "9.3 ± 3.5", "unit": "DSS"}]}]}
